Laboratory results from patent US8153631B2, “Triazole compounds and uses related thereto” (Amgen Inc., priority 2003, dated 2012).

Molecular target: T1, human HSD1 (recombinant HSD1) (Homo sapiens, UniProt P28845)
T1 construct: made in house
Assay: In vitro HSD1 activity inhibitory action, SPA of cortisone to cortisol conversion
Type: biochemical
Conditions: recombinant human HSD1 0.1 μg/ml, 500 μM NADPH, 16 nM 3H cortisone, room temperature 90 min, read-out: hHSD1 IC50
Procedure: In Vitro HSD1 (Hydroxysteroid Dehydrogenase 1) Activity Inhibitory Action
The HSD1 inhibitory activity was examined by quantitative determination by an SPA (scintillation proximity assay) system of the suppressive action on the conversion from cortisone to cortisol using human HSD1 (hereinafter recombinant HSD1) expressed using a baculo-virus system as an enzyme source. For the reaction, a reagent was added to a 96 well plate (96 well Opti-plates™-96 (Packard)) to the following final concentration and a volume of 100 μl was reacted at room temperature for 90 min. The reaction solution used was 0.1 μg/ml recombinant HSD1, 500 μM NADPH, 16 nM ^3H cortisone (Amersham Biosciences, 1.78 Tbq/mol) dissolved in 0.1% BSA (Sigma)-containing PBS and the test drug was 2 μl of a compound solution (dissolved in DMSO). After 90 min, the reaction was stopped by adding PBS (40 μl, containing 0.1% BSA (Sigma)) containing 0.08 μg of anti-cortisol mouse monoclonal antibody (East Coast Biologics), 365 μg SPA PVT mouse antibody-binding beads (Amersham Biosciences) and 175 μM carbenoxolone (Sigma) to the reaction solution. After the completion of the reaction, the plate was incubated overnight at room temperature and the radioactivity was measured by Topcount (Packard). For control, the value (0% inhibition) of the well containing 2 μl of DMSO instead of the test drug was used, and for positive control, the value (100% inhibition) of the well containing carbenoxolone instead of the test drug at the final concentration of 50 μM was used. The inhibition (%) of the test drug was calculated by ((value of control−value of test drug)/(value of control−value of positive control))×100 (%). The IC50 value was analyzed using a computer-based curve fitting soft.

T1 sequence (P28845 whole entry): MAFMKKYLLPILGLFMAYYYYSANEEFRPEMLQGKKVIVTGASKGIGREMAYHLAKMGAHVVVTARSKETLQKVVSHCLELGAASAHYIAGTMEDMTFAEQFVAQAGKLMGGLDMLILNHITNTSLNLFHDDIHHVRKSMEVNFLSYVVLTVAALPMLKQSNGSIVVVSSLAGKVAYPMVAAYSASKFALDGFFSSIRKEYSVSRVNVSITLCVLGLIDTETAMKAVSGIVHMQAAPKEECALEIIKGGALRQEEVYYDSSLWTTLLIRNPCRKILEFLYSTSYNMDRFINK

Row | IC50 | Structure (SMILES)
1 | 10 to 1000 nM | Cn1c(N2CCC(Oc3ccc(Cl)c(CO)c3)CC2)nnc1C1(c2ccccc2)CC1 [Ex. 2-63]
2 | 10 to 1000 nM | CC(=O)NC1CCN(c2nnc(C3(c4ccccc4)CC3)n2C)CC1 [Ex. 2-9]
3 | < 10 nM | Cn1c(N2CCSCC2)nnc1C1(c2ccccc2)CC1 [Ex. 2-21]
4 | 10 to 1000 nM | CCCn1c(N2CCC(Oc3ncc(Cl)cc3Cl)CC2)nnc1C1(c2ccccc2)CC1 [Ex. 2-71]
5 | < 10 nM | Cn1c(N2CCC(C)(O)CC2)nnc1C1(c2ccccc2)CC1 [Ex. 2-59]
6 | < 10 nM | Cn1c(N2CCC(Oc3ccc(Cl)cc3Cl)CC2)nnc1C1(c2ccccc2)CC1 [Ex. 2-73]
7 | < 10 nM | Cn1c(N2CCC(Oc3ccccc3Cl)CC2)nnc1C1(c2ccccc2)CC1 [Ex. 2-30]
8 | < 10 nM | Cn1c(N2CCC(Oc3ncc(Cl)cc3Cl)CC2)nnc1C1(c2ccc(F)cc2)CC1 [Ex. 2-31]
9 | 10 to 1000 nM | Cn1c(N2CCN(c3ccc(Cl)cc3)CC2)nnc1C1(c2ccccc2)CC1 [Ex. 2-90]
10 | < 10 nM | CC(C)n1c(N2CCC(Oc3ncc(Cl)cc3Cl)CC2)nnc1C1(c2ccccc2)CC1 [Ex. 2-80]
11 | 10 to 1000 nM | CNC(=O)c1cccc(OC2CCN(c3nnc(C4(c5ccccc5)CC4)n3C)CC2)c1 [Ex. 2-56]
12 | 10 to 1000 nM | Cn1c(N2CCC(Oc3cccc(CO)c3)CC2)nnc1C1(c2ccccc2)CC1 [Ex. 2-54]
13 | 10 to 1000 nM | CC(C)Cn1c(N2CCC(Oc3ncc(Cl)cc3Cl)CC2)nnc1C1(c2ccccc2)CC1 [Ex. 2-77]
14 | < 10 nM | Cn1c(N2CCC(Oc3ccc(F)cc3)CC2)nnc1C1(c2ccccc2)CC1 [Ex. 2-51]
15 | 10 to 1000 nM | CN(c1ncc(Cl)cc1Cl)C1CCN(c2nnc(C3(c4ccccc4)CC3)n2C)CC1 [Ex. 2-41]
16 | < 10 nM | Cn1c(N2CCC(Oc3ncc(Cl)cc3Cl)CC2)nnc1C1(c2ccccc2)CCCC1 [Ex. 2-81]
17 | < 10 nM | COC(=O)c1cccc(OC2CCN(c3nnc(C4(c5ccccc5)CC4)n3C)CC2)c1 [Ex. 2-49]
18 | < 10 nM | Cn1c(N2CCC(C)(CO)CC2)nnc1C1(c2ccccc2)CC1 [Ex. 2-68]
19 | 10 to 1000 nM | Cn1c(N2CCC(CO)(c3ccccc3)CC2)nnc1C1(c2ccccc2)CC1 [Ex. 2-17]
20 | < 10 nM | Cn1c(N2CCCCC2)nnc1C1(c2ccccc2)CC1 [Ex. 2-14]
21 | 10 to 1000 nM | COC(=O)c1ccccc1OC1CCN(c2nnc(C3(c4ccccc4)CC3)n2C)CC1 [Ex. 2-50]
22 | < 10 nM | Cn1c(N2CCC(C(F)(F)F)CC2)nnc1C1(c2ccccc2)CC1 [Ex. 2-15]
23 | < 10 nM | Cn1c(N2CCOCC2)nnc1C1(c2ccccc2)CC1 [Ex. 2-20]

Continued, compound first:

Row | Structure (SMILES) | IC50
24 | Cn1c(-c2ccc(C(N)=O)cc2Cl)nnc1C1(c2ccc(F)cc2)CC1 [Ex. 1-127] | < 10 nM
25 | Cn1c(-c2ccc(N3CCOC3=O)cc2Cl)nnc1C1(c2ccccc2)CC1 [Ex. 1-36] | < 10 nM
26 | Cn1c(-c2ccc(NC(=O)CN3CCOCC3)cc2Cl)nnc1C1(c2ccccc2)CC1 [Ex. 1-31] | < 10 nM
27 | Cn1c(-c2ccc(Cl)cc2[N+](=O)[O-])nnc1C1(c2ccccc2)CC1 [Ex. 1-93] | < 10 nM
28 | Cn1c(-c2ccc(C(=O)O)cc2Cl)nnc1C1(c2ccccc2)CC1 [Ex. 1-72] | 10 to 1000 nM
29 | CCOC(=O)Nc1ccc(-c2nnc(C3(c4ccccc4)CC3)n2C)c(Cl)c1 [Ex. 1-38] | < 10 nM
30 | Cn1c(C2CCN(c3c(Cl)cncc3Cl)CC2)nnc1C1(c2ccccc2)CCCC1 [Ex. 1-13] | < 10 nM
31 | Cn1c(-c2ccc(NCCO)cc2Cl)nnc1C1(c2ccc(F)cc2)CC1 [Ex. 1-120] | < 10 nM
32 | Cn1c(-c2ccc(C(=O)N3CCOCC3)cc2Cl)nnc1C1(c2ccccc2)CC1 [Ex. 1-74] | 10 to 1000 nM
33 | Cn1c(-c2ccc(C(=O)O)cc2Cl)nnc1C1(c2ccc(F)cc2)CC1 [Ex. 1-126] | 10 to 1000 nM
34 | Cn1c(-c2ccc(Cl)cc2Cl)nnc1C1(c2ccccc2)CC1 [Ex. 1-18] | < 10 nM
35 | COC(=O)c1ccc(-c2nnc(C3(c4ccccc4)CC3)n2C)c(Cl)c1 [Ex. 1-70] | < 10 nM
36 | Cn1c(-c2ccc(N3CCOC3=O)cc2Cl)nnc1C1(c2ccc(F)cc2)CC1 [Ex. 1-118] | < 10 nM
37 | Cn1c(-c2ccc(N3CCC(C(=O)NCC(F)(F)F)CC3)cc2Cl)nnc1C1(c2ccccc2)CC1 [Ex. 1-116] | < 10 nM
38 | COc1ccc(COc2ccc(-c3nnc(C4(c5ccccc5)CC4)n3C)c(Cl)c2)cc1 [Ex. 1-67] | < 10 nM
39 | CC(=O)NCCn1c(C2CCN(c3c(Cl)cncc3Cl)CC2)nnc1C1(c2ccccc2)CC1 [Ex. 1-7] | 10 to 1000 nM
40 | Cn1c(-c2ccc(C(=O)N3CCC(O)CC3)cc2Cl)nnc1C1(c2ccccc2)CC1 [Ex. 1-81] | 10 to 1000 nM
41 | Cn1c(-c2ccc(C(=O)NCC(F)(F)F)cc2Cl)nnc1C1(c2ccccc2)CC1 [Ex. 1-83] | 10 to 1000 nM
42 | CONC(=O)Nc1ccc(-c2nnc(C3(c4ccccc4)CC3)n2C)c(Cl)c1 [Ex. 1-117] | < 10 nM
43 | CC(C)C(=O)N1CCN(c2ccc(-c3nnc(C4(c5ccccc5)CC4)n3C)c(Cl)c2)CC1 [Ex. 1-51] | < 10 nM
44 | Cn1c(-c2ccc(C(=O)N3CCCCC3)cc2Cl)nnc1C1(c2ccccc2)CC1 [Ex. 1-80] | 10 to 1000 nM

Row | Structure (SMILES) | IC50
45 | CCn1c(-c2ccc(C(N)=O)cc2Cl)nnc1C1(c2ccc(F)cc2)CC1 [Ex. 1-159] | < 10 nM
46 | CCn1c(-c2ccc(C(N)=O)cc2Cl)nnc1C1(c2ccccc2)CC1 [Ex. 1-158] | < 10 nM
47 | CC(C)n1c(-c2ccc(C(N)=O)cc2)nnc1C1(c2ccccc2)CC1 [Ex. 1-132] | < 10 nM
48 | Cn1c(-c2ccc(NC(=O)N3CCCC(O)C3)cc2Cl)nnc1C1(c2ccccc2)CC1 (stereo not shown) [Ex. 1-41] | 10 to 1000 nM
49 | Cn1c(-c2ccc(N3CCNCC3)cc2Cl)nnc1C1(c2ccccc2)CC1 [Ex. 1-48] | 10 to 1000 nM
50 | COC(=O)C1(c2ccccc2)CCN(c2nnc(C3(c4ccccc4)CC3)n2C)CC1 [Ex. 2-2] | 10 to 1000 nM
51 | CC1CCN(c2ccc(-c3nnc(C4(c5ccccc5)CC4)n3C)c(Cl)c2)CC1 [Ex. 1-56] | < 10 nM
52 | Cn1c(-c2ccc(NC(=O)N3CCOCC3)cc2Cl)nnc1C1(c2ccccc2)CC1 [Ex. 1-30] | < 10 nM
53 | Cn1c(-c2ccc(N3CCC(C(=O)O)CC3)cc2Cl)nnc1C1(c2ccccc2)CC1 [Ex. 1-59] | 10 to 1000 nM
54 | Cn1c(-c2ccc(Cl)cc2N)nnc1C1(c2ccccc2)CC1 [Ex. 1-94] | 10 to 1000 nM
55 | Cn1c(-c2ccc(NC3CCN(C(=O)OC(C)(C)C)CC3)cc2Cl)nnc1C1(c2ccccc2)CC1 [Ex. 1-32] | < 10 nM
56 | Cn1c(-c2ccc(N3CCC(C(=O)N4CCOCC4)CC3)cc2Cl)nnc1C1(c2ccccc2)CC1 [Ex. 1-114] | < 10 nM
57 | Cn1c(-c2ccccn2)nnc1C1(c2ccccc2)CC1 [Ex. 1-98] | 10 to 1000 nM
58 | Cn1c(C2CCN(c3c(Cl)cncc3Cl)CC2)nnc1C1(c2ccccc2)CC1 [Ex. 1-15] | < 10 nM
59 | Cn1c(-c2ccc(N3CCC(O)CC3)cc2Cl)nnc1C1(c2ccccc2)CC1 [Ex. 1-54] | < 10 nM
60 | Cn1c(-c2ccc(N3CCOCC3)cc2)nnc1C1(c2ccccc2)CC1 [Ex. 1-46] | 10 to 1000 nM
61 | Cn1c(-c2ccc(C(=O)NCCO)cc2Cl)nnc1C1(c2ccccc2)CC1 [Ex. 1-78] | 10 to 1000 nM
62 | CONC(=O)Nc1ccc(-c2nnc(C3(c4ccc(F)cc4)CC3)n2C(C)C)cc1 [Ex. 1-153] | < 10 nM
63 | COc1ccc(-c2nnc(C3(c4ccccc4)CC3)n2C)c(Cl)c1 [Ex. 1-76] | < 10 nM
64 | Cn1c(-c2ccc(Cl)cc2F)nnc1C1(c2ccccc2)CC1 [Ex. 1-95] | < 10 nM
